Among the test systems are SK-OV-3 ovarian; SF-295 CNS; CCRF-CEM leukemia; MDA-MB-231 breast; SR leukemia; MALME-3M melanoma; T-47D breast; ACHN renal; EKVX NSCLC; TK-10 renal.
What all share (assay): growth of human tumour cells (NCI), 48 h

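Briefly, cells in 96-well plates were exposed to five compound concentrations for 48 h, and endpoints were estimated by linear interpolation. Here, GI50 denotes the concentration required for 50% inhibition of growth. TGI denotes the concentration required for complete inhibition of growth.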

`COc1cccc(-c2nc3sccn3c2-c2ccnc(NCCCNS(=O)(=O)c3ccccc3)c2)c1`: the GI50 in the assay on SK-OV-3 ovarian was 5.43 µM; in the assay with SF-295 CNS it was 3.18 µM; with CCRF-CEM leukemia, 2.73 µM; in the assay with MDA-MB-231 breast, 3.48 µM; in the assay with SR leukemia, 3.57 µM; in the assay with MALME-3M melanoma it was 2.59 µM. In addition, the GI50 with T-47D breast is 1.73 µM; in the assay on ACHN renal it was 2.66 µM; in the assay with EKVX NSCLC, 3.68 µM; in the assay with TK-10 renal it was 4.27 µM. In addition, the TGI in the assay on SK-OV-3 ovarian was over 100 µM; in the assay with SF-295 CNS, 20.8 µM; in the assay with CCRF-CEM leukemia, over 100 µM; in the assay on MDA-MB-231 breast, over 100 µM; in the assay with SR leukemia, 92.6 µM; in the assay on MALME-3M melanoma it was 9.73 µM. For the same compound, the TGI in the assay with T-47D breast was 6.24 µM; with ACHN renal, over 100 µM; in the assay on EKVX NSCLC it was over 100 µM; in the assay on TK-10 renal, over 100 µM.

Take `COc1cc(N(C)C)c(OC)cc1C=C1C=CC=C1`: the TGI in the assay with SK-OV-3 ovarian, with SF-295 CNS, in the assay with CCRF-CEM leukemia, with MDA-MB-231 breast, in the assay on SR leukemia and in the assay on MALME-3M melanoma was over 100 µM each time. The TGI in the assay with T-47D breast, in the assay with ACHN renal, in the assay with EKVX NSCLC and in the assay on TK-10 renal was over 100 µM each time.

Regarding `O=C(O)c1ccccc1NCn1c(=S)sc2ccccc21`, the TGI with SK-OV-3 ovarian was over 100 µM; in the assay on SF-295 CNS, over 100 µM; with CCRF-CEM leukemia, 52.2 µM; in the assay with MDA-MB-231 breast it was over 100 µM; with SR leukemia, 81.6 µM; with MALME-3M melanoma, over 100 µM. For the same compound, the TGI with T-47D breast, with ACHN renal, with EKVX NSCLC and with TK-10 renal was over 100 µM throughout.

`O=c1[nH]cnc2n[nH]nc12`: the TGI with SK-OV-3 ovarian was over 25.2 µM; with SF-295 CNS it was over 53.4 µM; in the assay with CCRF-CEM leukemia, over 100 µM; in the assay with MDA-MB-231 breast it was over 100 µM; in the assay on SR leukemia, over 52.7 µM; with MALME-3M melanoma, 46.4 µM. In addition, the TGI in the assay on T-47D breast, in the assay with ACHN renal, in the assay on EKVX NSCLC and in the assay with TK-10 renal was over 100 µM in each case. In addition, the GI50 in the assay with MDA-MB-231 breast was 1.67 µM; with T-47D breast, 3.49 µM.

On to `COc1ccc(-c2c(N)noc2-c2cc(OC)c3c(c2)OCCO3)cc1`, for which the GI50 with SK-OV-3 ovarian was under 0.0121 µM; in the assay on SF-295 CNS it was under 0.01 µM; in the assay with CCRF-CEM leukemia it was 0.0166 µM; with MDA-MB-231 breast, 0.0851 µM; in the assay with SR leukemia it was under 0.01 µM; with MALME-3M melanoma, 23.6 µM. In addition, the GI50 with T-47D breast is 0.64 µM; in the assay with ACHN renal, 0.131 µM; in the assay on EKVX NSCLC, 0.046 µM; in the assay with TK-10 renal, 0.562 µM. Further, the TGI in the assay with SK-OV-3 ovarian is 1.01 µM; in the assay with SF-295 CNS, 22.3 µM; in the assay with CCRF-CEM leukemia, 1.74 µM; in the assay with MDA-MB-231 breast, over 43.3 µM; in the assay with SR leukemia it was over 52.4 µM; in the assay with MALME-3M melanoma it was over 100 µM. Moreover, the TGI in the assay with T-47D breast is 41.2 µM; in the assay with ACHN renal it was over 100 µM; in the assay on EKVX NSCLC, over 100 µM; in the assay with TK-10 renal, over 56.6 µM.

With `C#C[C@]1(O)CC[C@H]2[C@@H]3CC=C4c5nc(N)sc5CC[C@]4(C)[C@H]3CC[C@@]21C`, the GI50 is 3.5 µM in the assay with SK-OV-3 ovarian; 1.98 µM with SF-295 CNS; 2.79 µM in the assay on CCRF-CEM leukemia; 3.07 µM with MDA-MB-231 breast; 2.31 µM in the assay with SR leukemia; 2.83 µM in the assay on MALME-3M melanoma. Further, the GI50 is 3.98 µM in the assay with T-47D breast, 5.25 µM with ACHN renal, 5.47 µM in the assay on EKVX NSCLC and 11.3 µM in the assay on TK-10 renal. The TGI with SK-OV-3 ovarian amounted to 10.5 µM; with SF-295 CNS, 4.05 µM; in the assay on CCRF-CEM leukemia, 14.9 µM; with MDA-MB-231 breast, 9.67 µM; with SR leukemia, 9.18 µM; in the assay on MALME-3M melanoma, 8.98 µM. Also, the TGI with T-47D breast was determined as 29.7 µM; with ACHN renal, 30.2 µM; with EKVX NSCLC, 50.9 µM; in the assay on TK-10 renal it was 39.4 µM.

In the case of `CN1CC[C@H](c2c(O)cc(O)c3c(=O)cc(-c4ccccc4Cl)oc23)[C@H](O)C1`, the GI50 in the assay on SK-OV-3 ovarian was 0.49 µM; with SF-295 CNS, 0.21 µM; in the assay with MDA-MB-231 breast, 0.23 µM; with SR leukemia it was 0.0045 µM; in the assay on MALME-3M melanoma it was 0.154 µM; in the assay on T-47D breast, 0.0737 µM. Further, the GI50 in the assay on ACHN renal is 0.0316 µM; in the assay with TK-10 renal it was 0.0999 µM. Besides, the TGI in the assay with SK-OV-3 ovarian is over 10 µM; in the assay with SF-295 CNS it was 0.625 µM; in the assay with CCRF-CEM leukemia, over 10 µM; with MDA-MB-231 breast it was over 10 µM; in the assay with SR leukemia it was over 2.67 µM; in the assay on MALME-3M melanoma, 0.594 µM. Further, the TGI was over 2.84 µM in the assay with T-47D breast, over 10 µM in the assay on ACHN renal, 0.559 µM in the assay on EKVX NSCLC and over 10 µM in the assay on TK-10 renal.

Values taken from PubChem BioAssay (NCI).
